These compounds were tested against human BLT1 receptor (Homo sapiens (Human), UniProt Q15722) (assay: BLT-1 cAMP Assay). Settings: antagonist mode; HEK293 cells recombinantly expressing human BLT1 receptor; forskolin 4 μM and LTB4 2 nM; cAMP detection.
Format: cell-based
Method: The ability of compounds to antagonize the human BLT1 receptor was determined using a kit to measure changes in intracellular cyclic AMP levels (cAMP dynamic assay kit, Cisbio Cat. No. 62AM4PEC). HEK293 cells recombinantly expressing human BLT1 receptor, previously frozen in Recovery Medium (Life Technologies, Cat. No. 12648-010) were thawed and diluted into assay medium (HBSS (Hyclone SH 30268.01), 20 mM HEPES (Gibco 15630-106), 800 μM IBMX (Sigma I5879), 0.1% DTPA BSA (Perkin Elmer CR84-100)). The cell suspension was centrifuged at 200×g for 10 min and then resuspended in fresh assay medium to a density of 2.5×10^5 cells/mL. A Labcyte Echo 550 acoustic dispenser was used to transfer 25 nL of test compound dissolved in DMSO into the wells of a dry 384-well plate (Greiner 784075). All subsequent liquid additions were performed using a BIORAPTR (FRD; Beckman Coulter). Next, 5 μL of cell suspension was added and incubated for 20 min. at 37° C. and 5% CO2 in a humidified plastic tray. To test for agonist activity […] of assay buffer containing forskolin (Sigma F-6886. 4 μM for BLT1) was added and incubated for 30 minutes at 37° C. and 5% CO2 in a humidified plastic tray. To test for antagonist activity 5 μL of assay buffer containing forskolin (Sigma F-6886. 4 μM for BLT1) and either LTB4 (Sigma Aldrich L0517; 2 nM BLT1) was added and incubated for 30 minutes at 37° C. and 5% CO2 in a humidified plastic tray.
The levels of cAMP were detected using the CisBio kit following the manufacturer's instructions: cAMP-d2 vial was reconstituted with distilled water and then diluted accordingly with conjugate & lysis buffer. 5 μL of cAMP-d2 working solution was added to all of the wells of the assay plate. cAMP-Cryptate vial was reconstituted with distilled water and then diluted accordingly with conjugate & lysis buffer. 5 μL of cAMP-Cryptate working solution were added to the assay plate. The assay plate was shaken for 3 minutes and incubated at room temperature for 45 minutes, then read on Perkin Elmer Envision. cAMP standard curve and fit data were plotted using a 4 parameter dose response curve fitting algorithm to fit curve. A 4-parameter curve fit (Max, min, log EC50 and slope) was used to transform fluorescent 665 nm/615 nm ratio signal to cAMP concentration. After normalization to treated and untreated controls, the percent effect of signal at each compound concentration was calculated. The plot of percent effect versus the log of compound concentration was fit with a 4-parameter concentration response equation to calculate EC50 values. Compound concentrations tested were 10 000, 3 333, 1 111, 370.4, 123.4, 41.2, 13.7, 4.6, 1.5 and 0.5 nM with 0.25% residual DMSO.

Chain of human BLT1 receptor (Q15722 whole entry): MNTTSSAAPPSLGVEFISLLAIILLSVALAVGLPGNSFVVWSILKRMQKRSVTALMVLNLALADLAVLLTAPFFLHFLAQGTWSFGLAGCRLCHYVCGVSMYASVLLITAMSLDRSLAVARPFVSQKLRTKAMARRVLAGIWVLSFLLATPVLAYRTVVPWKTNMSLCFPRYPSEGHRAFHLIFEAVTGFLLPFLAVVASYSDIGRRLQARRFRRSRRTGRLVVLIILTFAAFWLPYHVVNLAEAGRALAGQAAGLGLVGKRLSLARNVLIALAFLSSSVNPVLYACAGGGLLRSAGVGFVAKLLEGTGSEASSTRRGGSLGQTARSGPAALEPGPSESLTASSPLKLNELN

Structure (SMILES) | EC50
CC(C)(C)S(=O)(=O)NC(=O)c1ccccc1-c1ccc2c(c1)OC[C@@H](Cc1coc(-c3ccccc3)n1)[C@@H]2O (single isomer, unassigned) [Example 47, N-(tert-Butylsulfonyl)-2-((3R,4S or 3S,4R)-4-hydroxy-3-((2-phenyloxazol-4-yl)methyl)chroman-7-yl)benzamide] | 75 nM
O=C(NS(=O)(=O)C1CC1)c1ccccc1-c1ccc2c(c1)OC[C@@H](Cc1ccccn1)[C@@H]2O (single isomer, unassigned) [Example 5, N-(Cyclopropylsulfonyl)-2-((3R,4S or 3S,4R)-4-hydroxy-3-(pyridin-2-ylmethyl)chroman-7-yl)benzamide] | 2170 nM
Cc1nnc(C[C@@H]2COc3cc(-c4ccccc4C(=O)NS(=O)(=O)C(C)(C)C)ccc3[C@H]2O)s1 (racemic) [Example 31, N-(tert-Butylsulfonyl)-2-((rac-trans)-4-hydroxy-3-((5-methyl-1,3,4-thiadiazol-2-yl)methyl)chroman-7-yl)benzamide] | 556 nM
CC1(S(=O)(=O)NC(=O)c2ccccc2-c2ccc3c(c2)OC[C@H](Cc2ccccn2)[C@H]3O)CC1 (single isomer, unassigned) [Example 8, 2-((3S,4R or 3R,4S)-4-Hydroxy-3-(pyridin-2-ylmethyl)chroman-7-yl)-N-((1-methylcyclopropyl)sulfonyl)benzamide] | 22 nM
CC(C)(C)S(=O)(=O)NC(=O)c1ccc(F)cc1-c1ccc2c(c1)OC[C@@H](Cc1ccccn1)[C@@H]2O (single isomer, unassigned) [Example 13, N-(tert-Butylsulfonyl)-4-fluoro-2-((3R,4S or 3S,4R)-4-hydroxy-3-(pyridin-2-ylmethyl)chroman-7-yl)benzamide] | 441 nM
O=C(NS(=O)(=O)C1CC1)c1ccc(F)cc1-c1ccc2c(c1)OC[C@@H](Cc1ccccn1)[C@@H]2O (single isomer, unassigned) [Example 15, N-(Cyclopropylsulfonyl)-4-fluoro-2-((3R,4S or 3S,4R)-4-hydroxy-3-(pyridin-2-ylmethyl)chroman-7-yl)benzamide] | 480 nM
Cc1nnc(C[C@@H]2COc3cc(-c4ccccc4C(=O)NS(=O)(=O)C4(C)CC4)ccc3[C@H]2O)s1 (racemic) [Example 29, 2-((Rac-trans)-4-Hydroxy-3-((5-methyl-1,3,4-thiadiazol-2-yl)methyl)chroman-7-yl)-N-((1-methylcyclopropyl)sulfonyl)benzamide] | 740 nM
C[C@H](c1ccccn1)C1COc2cc(-c3ccccc3C(=O)NS(=O)(=O)C3(C)CC3)ccc2C1O (stereo in doubt) [Example 50, 2-((3,4-trans)-4-Hydroxy-3-((S)-1-(pyridin-2-yl)ethyl)chroman-7-yl)-N-((1-methylcyclopropyl)sulfonyl)benzamide] | 67 nM
CC1(S(=O)(=O)NC(=O)c2ccccc2-c2ccc3c(c2)OC[C@@H](Cc2cscn2)[C@@H]3O)CC1 (single isomer, unassigned) [Example 26, 2-((3R, 4S or 3S, 4R)-4-Hydroxy-3-(thiazol-4-ylmethyl)chroman-7-yl)-N-((1-methylcyclopropyl)sulfonyl)benzamide] | 770 nM
CC1(S(=O)(=O)NC(=O)c2ccccc2-c2ccc3c(c2)OC[C@H](Cc2coc(-c4ccccc4)n2)[C@H]3O)CC1 (single isomer, unassigned) [Example 45, 2-((3S,4R or 3R,4S)-4-hydroxy-3-((2-phenyloxazol-4-yl)methy)chroman-7-yl)-N-((1-methylcyclopropyl)sulfonyl)benzamide] | 3 nM
CCn1nccc1C[C@@H]1COc2cc(-c3ccccc3C(=O)NS(=O)(=O)C(C)(C)C)ccc2[C@H]1O (racemic) [Example 36, N-(tert-Butylsulfonyl)-2-((rac-trans)-3-((1-ethyl-1H-pyrazol-5-yl)methyl)-4-hydroxychroman-7-yl)benzamide] | 81 nM
O=C(NS(=O)(=O)C(F)(F)F)c1ccc(F)cc1-c1ccc2c(c1)OC[C@@H](Cc1ccc(-c3ccccc3)cc1)[C@@H]2O (single isomer, unassigned) [Example 41, 2-((3R,4S or 3S,4R)-3-([1,1′-Biphenyl]-4-ylmethyl)-4-hydroxychroman-7-yl)-4-fluoro-N-((trifluoromethyl)sulfonyl)benzamide] | 11 nM
C[C@@H](c1ccccn1)C1COc2cc(-c3ccccc3C(=O)NS(=O)(=O)C3(C)CC3)ccc2C1O (stereo in doubt) [Example 49, 2-((3,4-trans)-4-Hydroxy-3-((R)-1-(pyridin-2-yl)ethyl)chroman-7-yl)-N-((1-methylcyclopropyl)sulfonyl)benzamide] | 154 nM
O=C(NS(=O)(=O)C(F)(F)F)c1ccc(F)cc1-c1ccc2c(c1)OC[C@H](Cc1ccc(-c3ccccc3)cc1)[C@@H]2O (racemic) [Example 39, 2-((Rac-cis)-3-([1,1′-Biphenyl]-4-ylmethyl)-4-hydroxychroman-7-yl)-4-fluoro-N-((trifluoromethyl)sulfonyl)benzamide] | 37 nM
CC1(S(=O)(=O)NC(=O)c2ccccc2-c2ccc3c(c2)OC[C@H](Cc2cscn2)[C@H]3O)CC1 (single isomer, unassigned) [Example 27, 2-((3S, 4R or 3R,4S)-4-hydroxy-3-(thiazol-4-ylmethyl)chroman-7-yl)-N-((1-methylcyclopropyl)sulfonyl)benzamide] | 26 nM
O=C(NS(=O)(=O)C(F)(F)F)c1ccc(F)cc1-c1ccc2c(c1)OC[C@H](Cc1ccc(-c3ccccc3)cc1)[C@H]2O (racemic) [Example 40, 2-((Rac-trans)-3-([1,1′-Biphenyl]-4-ylmethyl)-4-hydroxychroman-7-yl)-4-fluoro-N-((trifluoromethyl)sulfonyl)benzamide] | 9 nM
CC(C)(C)S(=O)(=O)NC(=O)c1ccccc1-c1ccc2c(c1)OC[C@@H](Cc1cscn1)[C@@H]2O (single isomer, unassigned) [Example 33, N-(tert-Butylsulfonyl)-2-((3R,4S or 3S,4R)-4-hydroxy-3-(thiazol-4-ylmethyl)chroman-7-yl)benzamide] | 808 nM
CC1(S(=O)(=O)NC(=O)c2ccc(F)cc2-c2ccc3c(c2)OC[C@H](Cc2ccccn2)[C@H]3O)CC1 (single isomer, unassigned) [Example 9, 4-Fluoro-2-((3S,4R or 3R,4S)-4-hydroxy-3-(pyridin-2-ylmethyl)chroman-7-yl)-N-((1-methylcyclopropyl)sulfonyl)benzamide] | 4 nM
O=C(NS(=O)(=O)C1CC1)c1ccccc1-c1ccc2c(c1)OC[C@@H](Cc1ccccc1)[C@@H]2O (single isomer, unassigned) [Example 23, 2-((3R,4S or 3S,4R)-3-Benzyl-4-hydroxychroman-7-yl)-N-(cyclopropylsulfonyl)benzamide] | 2820 nM
CC1(S(=O)(=O)NC(=O)c2ccccc2-c2ccc3c(c2)OC[C@H](Cc2ccccc2)[C@H]3O)CC1 (single isomer, unassigned) [Example 22, 2-((3S,4R or 3R,4S)-3-Benzyl-4-hydroxychroman-7-yl)-N-((1-methylcyclopropyl)sulfonyl)benzamide] | 15 nM
CC(C)(C)S(=O)(=O)NC(=O)c1ccccc1-c1ccc2c(c1)OC[C@@H](Cc1ccccn1)[C@@H]2O (single isomer, unassigned) [Example 11, N-(tert-Butylsulfonyl)-2-((3R,4S or 3S,4R)-4-hydroxy-3-(pyridin-2-ylmethyl)chroman-7-yl)benzamide] | 144 nM

Source: patent US10336733B2, “Aryl acylsulfonamides as BLT1 antagonists” (Merck Sharp & Dohme Corp., priority 2015, dated 2019)
